The values below come from US9828379B2 (priority 2013, dated 2017).

Experiment [1] deals with T1, ABHD6 (Mus musculus, UniProt Q8R2Y0).
T1 sequence (Q8R2Y0 1-336): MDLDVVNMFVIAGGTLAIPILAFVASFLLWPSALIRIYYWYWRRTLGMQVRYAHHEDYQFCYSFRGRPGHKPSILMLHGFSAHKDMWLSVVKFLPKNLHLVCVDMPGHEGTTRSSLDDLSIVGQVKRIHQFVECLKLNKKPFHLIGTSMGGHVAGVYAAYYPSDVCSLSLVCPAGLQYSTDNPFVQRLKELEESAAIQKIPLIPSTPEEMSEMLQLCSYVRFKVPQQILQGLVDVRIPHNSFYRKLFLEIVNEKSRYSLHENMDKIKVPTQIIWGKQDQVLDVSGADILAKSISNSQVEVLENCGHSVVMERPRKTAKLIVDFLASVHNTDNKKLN
The experiment in a line: In vitro competitive activity-based protein profiling (Table 2, % inhibition at 1 μM). The format is biochemical. Conditions: read-out: % Inhibition at 1 μM ABHD6.

The target in experiment [2] is T2, FAAH (Mus musculus, UniProt O08914).
T2 sequence (O08914 1-579): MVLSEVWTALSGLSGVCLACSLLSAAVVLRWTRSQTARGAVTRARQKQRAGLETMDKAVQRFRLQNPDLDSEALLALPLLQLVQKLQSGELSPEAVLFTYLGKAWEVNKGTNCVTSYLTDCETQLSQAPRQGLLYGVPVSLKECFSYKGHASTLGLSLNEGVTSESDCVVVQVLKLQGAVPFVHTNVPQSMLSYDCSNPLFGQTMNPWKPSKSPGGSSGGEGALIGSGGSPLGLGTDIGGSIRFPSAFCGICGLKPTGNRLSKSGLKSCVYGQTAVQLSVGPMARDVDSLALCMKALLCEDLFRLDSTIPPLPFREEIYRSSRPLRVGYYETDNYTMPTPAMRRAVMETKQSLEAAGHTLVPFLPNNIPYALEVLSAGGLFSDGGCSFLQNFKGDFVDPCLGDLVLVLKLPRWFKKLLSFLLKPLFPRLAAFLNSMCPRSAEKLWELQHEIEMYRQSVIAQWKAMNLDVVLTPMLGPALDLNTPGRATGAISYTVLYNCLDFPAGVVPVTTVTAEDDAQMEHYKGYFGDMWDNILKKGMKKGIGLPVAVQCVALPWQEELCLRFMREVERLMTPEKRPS
The experiment is described as above. The format is biochemical. As to conditions: read-out: % Inhibition at 1 μM FAAH.

For experiment [3], the target named is T3, MAGL (Mus musculus, UniProt O35678).
T3 sequence (O35678 1-303): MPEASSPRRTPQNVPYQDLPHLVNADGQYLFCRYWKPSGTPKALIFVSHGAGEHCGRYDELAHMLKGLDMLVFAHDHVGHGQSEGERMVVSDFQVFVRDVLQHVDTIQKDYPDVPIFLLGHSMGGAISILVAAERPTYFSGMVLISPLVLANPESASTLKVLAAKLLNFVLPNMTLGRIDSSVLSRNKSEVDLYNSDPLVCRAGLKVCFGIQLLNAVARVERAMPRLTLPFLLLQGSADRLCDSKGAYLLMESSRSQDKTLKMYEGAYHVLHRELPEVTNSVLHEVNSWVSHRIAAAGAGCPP
In words: biochemical. Conditions: mouse; in vitro competitive ABPP; read-out: Mouse (IC50 value, nM) MAGL.

The target in experiment [4] is T1, ABHD6. The experiment in a line: biochemical. Conditions: in vitro competitive ABPP.
Experiment [5] has as its target T3, MAGL. The experiment in a line: In vitro competitive activity-based protein profiling (Table 2, % inhibition at 1 μM). The format is biochemical. As to conditions: read-out: % Inhibition at 1 μM MAGL. As for the experimental part:
After 30 min, FP—Rh (1.0 μL, 50 μM in DMSO) was added and the mixture was incubated for another 30 min at 37° C. Reactions were quenched with SDS loading buffer (50 μL-4×) and run on SDS-PAGE.
Cell lysates were diluted with mock proteomes for use in competitive ABPP experiments.

Experiment [6] addresses T2, FAAH. In words: biochemical. Conditions: in vitro competitive ABPP.

Regarding `CCc1cc(CN2CC3CN(C(=O)OC(C(F)(F)F)C(F)(F)F)CC3C2)n(C2CCOCC2)n1` (stereo not drawn) [Example 156, 1,1,1,3,3,3-hexafluoropropan-2-yl 5-[[3-ethyl-1-(oxan-4-yl)-1H-pyrazol-5-yl]methyl]-octahydropyrrolo[3,4-c]pyrrole-2-carboxylate], the inhibition at 1 µM at ABHD6 [1] is < 25%; at FAAH [2] it was < 25%; at MAGL [5] it was > 75%. Further, the half-inhibitory concentration (IC50) was < 100 nM at MAGL [3], 1000 to 10000 nM at ABHD6 [4] and 1000 to 10000 nM at FAAH [6].

Take `O=C(OC(C(F)(F)F)C(F)(F)F)N1CC2CN(Cc3cccc(Cl)c3N3CCOCC3)CC2C1` (stereo not drawn) [Example 44, 1,1,1,3,3,3-Hexafluoropropan-2-yl 5-[[3-chloro-2-(morpholin-4-yl)phenyl]methyl]-octahydropyrrolo[3,4-c]pyrrole-2-carboxylate]: the figures for the inhibition at 1 µM at ABHD6 [1], at FAAH [2] and on MAGL [5] were < 25%, < 25% and > 75%, respectively. In addition, the IC50 on MAGL [3] was < 100 nM; on ABHD6 [4], 1000 to 10000 nM; on FAAH [6], 1000 to 10000 nM.

For `CCn1ncc(CN2CC3CN(C(=O)OC(C(F)(F)F)C(F)(F)F)CC3C2)c1C(=O)NCC1CC1` (stereo not drawn) [Example 179, 1,1,1,3,3,3-hexafluoropropan-2-yl 5-((5-((cyclopropylmethyl)carbamoyl)-1-ethyl-1H-pyrazol-4-yl)methyl)hexahydropyrrolo[3,4-c]pyrrole-2(1H)-carboxylate], the inhibition at 1 µM is 25 to 75% at ABHD6 [1], < 25% on FAAH [2] and > 75% at MAGL [5]. In addition, the IC50 on MAGL [3] was < 100 nM; on ABHD6 [4] it was 100 to 1000 nM; on FAAH [6] it was > 10000 nM.

In the case of `O=C(OC(C(F)(F)F)C(F)(F)F)N1CC2CN(Cc3ccc(Cl)cc3N3CCCC3)CC2C1` (stereo not drawn) [Example 19, 1,1,1,3,3,3-Hexafluoropropan-2-yl 5-[[4-chloro-2-(pyrrolidin-1-yl)phenyl]methyl]-octahydropyrrolo[3,4-c]pyrrole-2-carboxylate], the inhibition at 1 µM at ABHD6 [1] is < 25%; at FAAH [2], 25 to 75%; at MAGL [5], > 75%. Moreover, the IC50 on MAGL [3] was < 100 nM; at ABHD6 [4] it was 1000 to 10000 nM; at FAAH [6] it was 1000 to 10000 nM.

As to `Cc1cccc(-c2cc(CN3CC4CN(C(=O)OC(C(F)(F)F)C(F)(F)F)CC4C3)n(C)n2)c1` (stereo not drawn) [Example 196, 1,1,1,3,3,3-hexafluoropropan-2-yl 5-((1-methyl-3-(m-tolyl)-1H-pyrazol-5-yl)methyl)hexahydropyrrolo[3,4-c]pyrrole-2(1H)-carboxylate], the inhibition at 1 µM on ABHD6 [1] is < 25%; at FAAH [2], < 25%; on MAGL [5], > 75%. In addition, the figures for the IC50 at MAGL [3], at ABHD6 [4] and at FAAH [6] were < 100 nM, 1000 to 10000 nM and 1000 to 10000 nM, respectively.

With `O=C(OC(C(F)(F)F)C(F)(F)F)N1CC2CN(Cc3ccc(N4CCOCC4)cc3Cl)CC2C1` (stereo not drawn) [Example 2, 1,1,1,3,3,3-Hexafluoropropan-2-yl 5-(2-chloro-4-morpholinobenzyl)hexahydropyrrolo[3,4-c]pyrrole-2(1H)-carboxylate], the figures for the inhibition at 1 µM on ABHD6 [1], at FAAH [2] and on MAGL [5] were < 25%, 25 to 75% and > 75%, respectively. The IC50 at MAGL [3] is < 100 nM; on ABHD6 [4], 1000 to 10000 nM; on FAAH [6] it was 100 to 1000 nM.

`Cc1cc(CN2CC3CN(C(=O)OC(C(F)(F)F)C(F)(F)F)CC3C2)n(C(C)C)n1` (stereo not drawn) [Example 59, 1,1,1,3,3,3-Hexafluoropropan-2-yl 5-[[3-methyl-1-(propan-2-yl)-1H-pyrazol-5-yl]methyl]-octahydropyrrolo[3,4-c]pyrrole-2-carboxylate]: the figures for the inhibition at 1 µM on ABHD6 [1], on FAAH [2] and at MAGL [5] were 25 to 75%, 25 to 75% and > 75%, respectively. Besides, the figures for the IC50 at MAGL [3], on ABHD6 [4] and on FAAH [6] were 100 to 1000 nM, 1000 to 10000 nM and 1000 to 10000 nM, respectively.

As for `O=C(OC(C(F)(F)F)C(F)(F)F)N1CC2CN(Cc3ccc(Cl)cc3N3CC4COCC4C3)CC2C1` (stereo not drawn) [Example 208, 1,1,1,3,3,3-hexafluoropropan-2-yl 5-(4-chloro-2-(tetrahydro-1H-furo[3,4-c]pyrrol-5(3H)-yl)benzyl)hexahydropyrrolo[3,4-c]pyrrole-2(1H)-carboxylate], the inhibition at 1 µM at ABHD6 [1] is < 25%; on FAAH [2], < 25%; at MAGL [5] it was > 75%. Moreover, the half-maximal inhibitory concentration (IC50) fell in the range of 100 to 1000 nM at MAGL [3], 1000 to 10000 nM on ABHD6 [4] and 1000 to 10000 nM at FAAH [6].

`O=C(OC(C(F)(F)F)C(F)(F)F)N1CC2CN(Cc3ccc(N4CCOCC4)cc3C(F)F)CC2C1` (stereo not drawn) [Example 200, 1,1,1,3,3,3-hexafluoropropan-2-yl 5-(2-(difluoromethyl)-4-morpholinobenzyl)hexahydropyrrolo[3,4-c]pyrrole-2(1H)-carboxylate]: the inhibition at 1 µM was < 25% at ABHD6 [1], 25 to 75% on FAAH [2] and > 75% at MAGL [5]. In addition, the IC50 was in the range of 100 to 1000 nM at MAGL [3], 1000 to 10000 nM at ABHD6 [4] and 1000 to 10000 nM at FAAH [6].

Regarding `CCN1CCN(c2cccc(CN3CC4CN(C(=O)OC(C(F)(F)F)C(F)(F)F)CC4C3)c2C)CC1` (stereo not drawn) [Example 155, 1,1,1,3,3,3-hexafluoropropan-2-yl 5-[[3-(4-ethylpiperazin-1-yl)-2-methylphenyl]methyl]-octahydropyrrolo[3,4-c]pyrrole-2-carboxylate], the values for the inhibition at 1 µM on ABHD6 [1], on FAAH [2] and on MAGL [5] were 25 to 75%, 25 to 75% and > 75%, respectively. Further, the IC50 was in the range of 100 to 1000 nM at MAGL [3], 1000 to 10000 nM on ABHD6 [4] and 1000 to 10000 nM at FAAH [6].

Regarding `CCn1cc(CN2CC3CN(C(=O)OC(C(F)(F)F)C(F)(F)F)CC3C2)c(C(=O)NC2CC2)n1` (stereo not drawn) [Example 77, 1,1,1,3,3,3-Hexafluoropropan-2-yl 5-((3-(cyclopropylcarbamoyl)-1-ethyl-1H-pyrazol-4-yl)methyl)hexahydropyrrolo[3,4-c]pyrrole-2(1H)-carboxylate], the figures for the inhibition at 1 µM at ABHD6 [1], on FAAH [2] and on MAGL [5] were < 25%, < 25% and > 75%, respectively. Also, the IC50 at MAGL [3] was 100 to 1000 nM; at ABHD6 [4], 1000 to 10000 nM; on FAAH [6], > 10000 nM.

In the case of `O=C(OC(C(F)(F)F)C(F)(F)F)N1CC2CN(Cc3ccc(N4CCCCC4)cc3C(F)F)CC2C1` (stereo not drawn) [Example 201, 1,1,1,3,3,3-hexafluoropropan-2-yl 5-(2-(difluoromethyl)-4-(piperidin-1-yl)benzyl)hexahydropyrrolo[3,4-c]pyrrole-2(1H)-carboxylate], the inhibition at 1 µM was < 25% at ABHD6 [1], 25 to 75% on FAAH [2] and > 75% on MAGL [5]. Moreover, the concentration for half-maximal inhibition (IC50) at MAGL [3] was 100 to 1000 nM; on ABHD6 [4], 1000 to 10000 nM; at FAAH [6] it was 1000 to 10000 nM.

Take `O=C(OC(C(F)(F)F)C(F)(F)F)N1CC2CN(Cc3cccc(N4CCC5(CCOC5)C4)c3Cl)CC2C1` (stereo not drawn) [Example 48, 1,1,1,3,3,3-Hexafluoropropan-2-yl 5-[(2-chloro-3-[2-oxa-7-azaspiro[4.4]nonan-7-yl]phenyl)methyl]-octahydropyrrolo[3,4-c]pyrrole-2-carboxylate]: the inhibition at 1 µM was < 25% on ABHD6 [1], 25 to 75% at FAAH [2] and > 75% at MAGL [5]. Further, the IC50 on MAGL [3] is < 100 nM; on ABHD6 [4] it was 1000 to 10000 nM; on FAAH [6], 1000 to 10000 nM.

A word on the inhibition: it is the percentage by which the read-out fell short of the control. The IC50 is the concentration needed to halve the response being measured.
